The values below come from patent US20160333073A1, “DRUG DELIVERY SYSTEM” (UCL BUSINESS PLC, priority 2014, published 2016).

A short description of data set [1]: Degradation by proteases in rabbit vitreous (mass spectrometry / UPLC-MS). The method, then:
FIG. 10. […] UPLC-MS=ultra performance liquid chromatography-mass spectrometry.
FIG. 11. The effect of the protease inhibitors aprotinin (8 μM), bestatin (500 μM), E-64 (150 μM), and leupeptin (200 μM) on HABP35-F detection by UPLC-MS, after 6 hours incubation in rabbit vitreous. […] The experiment was performed three times (n=3). UPLC-MS=ultra performance liquid chromatography-mass spectrometry.
In order to assess degradation of HABP35-F by proteases present in rabbit vitreous, HABP35-F was incubated in rabbit vitreous for a period of 12 hours. Samples of HABP35-F in rabbit vitreous were taken at 0 and 12 hours and the mass spectrum traces for HABP35-F were compared.
In order to confirm that fragmentation occurred at the N-terminus (as opposed to the C-terminus), HABP35-B was incubated for 12 hours with rabbit vitreous.
In order to further confirm that HABP35-F was being enzymatically digested at the N-terminus, the proportion of HABP35-F that could be detected following incubation was assessed, with or without bestatin. Bestatin is an aminopeptidase inhibitor. Aminopeptidases catalyse the cleavage of amino acids from the N-terminus of peptides/proteins.
In order to optimise detection, further other protease inhibitors were added (aprotinin, bestatin, E-64, leupeptin).

The format of data set [2] is binding, rabbit. An excerpt: The affinity of the peptide may be defined in terms of its binding affinity to hyaluronic acid and/or collagen, and assessed by way of its diffusion from one chamber of a micro-equilibrium dialyser containing vitreous matter (e.g. hyaluronic acid) to another chamber containing vitreous matter in the absence of such a binding peptide. Thus, the concentration of peptide remaining in the initial chamber over time provides a quantitative parameter for assessing the amount of peptide remaining in the vitreous, this parameter being innately governed by peptide binding properties to hyaluronic acid. A comparison with the binding properties of the peptide of SEQ ID No. 1 allows the relative affinity to the determined (for example, see FIG. 3).
FIG. 1. Harvard Fast Micro-Equilibrium Dialyzer. Each dialyzer is made of polytetrafluoroethylene (PTFE) and contains a 250 μl chamber on either side of a 100 kDa molecular weight cut off (MWCO) cellulose acetate membrane. The chambers were incubated at room temperature for up to 8 hours, and the diffusion from one chamber to the other was assessed. […]
In order to study the diffusion properties of HABP35-F in vitreous, Fast Micro-Equilibrium Dialyzers (250 μl chamber volume) were purchased from Harvard Apparatus Ltd (UK). […] The rate at which HABP35-F and RP2-F diffused from one side of the dialyzer to the other was assessed over time. […]

The format of data set [3] is binding. The protocol: FIG. 1. Harvard Fast Micro-Equilibrium Dialyzer. Each dialyzer is made of polytetrafluoroethylene (PTFE) and contains a 250 μl chamber on either side of a 100 kDa molecular weight cut off (MWCO) cellulose acetate membrane. The chambers were incubated at room temperature for up to 8 hours, and the diffusion from one chamber to the other was assessed. The side in which the peptide is placed is termed the donating chamber. The other side, towards which the peptide diffuses, is termed the receiving chamber.
FIG. 4. The diffusion of HABP35-F (left-hand column in each case) and RP2-F (right-hand column in each case) in hyaluronic acid, using a Harvard Fast Micro-Equilibrium Dialyzer. […] Concentration of HABP35-F or RP2-F, in the donating and receiving chambers, was measured at the 8-hour time point (n=3). The concentration gradient was then determined (difference between the concentration of the donating and receiving chambers). […]
In order to assess whether the retention in the donating chamber was due to an interaction with hyaluronic acid (HA), a solution of 2.5 mg/ml HA (in HEPES buffered saline) was added to each chamber, instead of rabbit vitreous. 20 nmole/ml of HABP35-F or RP2-F was added to the donating chamber and diffusion was measured over 8 hours. […] As a control, diffusion in HEPES buffered saline (HBS) alone was also assessed. […]

On the set-up of data set [4]: species or system Sprague Dawley rats. As to conditions: rat, in vivo. The protocol:
FIG. 5. The retention of HABP35-F and RP2-F in rat vitreous after 48 hours. 2.5 μl of HABP35-F or RP2-F (250 nmole/ml) was injected into the vitreous of adult male Sprague Dawley rats. After 48 hours the eyes were removed. The cornea and lens was removed and the eye cup opened out into a Maltese cross. The vitreous and retina was photographed using an epifluorescent microscope (using equal exposure settings). A) Fluorescence of HABP35-F in the vitreous 48 hours following injection. B) Fluorescence of RP-F in the vitreous 48 hours following injection. C) Collage photograph showing fluorescence of HABP35-F in the vitreous 48 hours following injection.
FIG. 6. The in vivo diffusion study of HABP35-FP (higher line) and RP2-F (lower line) in rat vitreous over time. […] At different time points (0, 8, 24, 72, 168 hours) rats were sacrificed and the concentration of peptide in the vitreous was measured by fluorescence. […]
HABP-35-F was modified to protect the N-terminus from enzymatic degradation, through conversion of the terminal leucine to its D-configuration and by acetylation. […] The vitreous was extracted and peptide concentration measured by assessing fluorescence of the extracted vitreous. Three eyes were assessed, for each peptide, at each time point. In addition, the fluorescence of the vitreous was directly assessed on eye-cup flat mounts using an epifluorescent microscope.

Data set [5] can be described thus: HA binder screening ELISA on non-covalently bound HA. It is filed as binding. The conditions noted are these: for specific binding to non-covalently bound HA (A450 HA wells minus blank wells): n=3, compared with RP-B. The method, then: FIG. 7. […] Three ELISAs were performed for each concentration (n=3). Error bars represent standard deviation.
FIG. 8. […] Specific binding was obtained by subtracting A450 of blank wells from A450 of HA loaded wells, from the readings represented in FIG. 7. Three ELISAs were performed for each concentration (n=3). […] Error bars represent standard deviation.
Wells of a clear polystyrene Amine Surface 96 well ELISA plates (Corning Life Sciences Ltd) were loaded with 100 μl of 1 mg/ml HA sodium salt (Sigma-Aldrich Ltd) in 0.1 M 2-[N-morpholino] ethane sulfonic acid (MES, pH 4.5-5, Sigma-Aldrich Ltd). The wells were incubated for three hours at room temperature on an orbital shaker. All further incubations occurred at room temperature on an orbital shaker.
Wells were then washed three times with wash buffer (0.05% Tween 20 (Sigma-Aldrich Ltd) in phosphate buffered saline (PBS), pH 7.2-7.4). PBS was prepared to the following formula: 137 mM sodium chloride, 2.7 mM potassium chloride, 8.1 mM sodium phosphate dibasic, 1.5 mM potassium phosphate monobasic, pH 7.2-7.4, 0.22 μm filtered. 300 μl of 3% BSA (Sigma-Aldrich Ltd) in PBS was used to block each well. After 90 minutes incubation the wells were washed again three times. Different concentrations of biotinylated HA binding peptides, or control peptides, were then added, dissolved in 100 μl of 3% BSA PBS, and incubated for 1 hour. Three further washes were performed. 100 μl of streptavidin-horse radish peroxidase (S-HRP) (R&D Systems Ltd) (diluted to a working concentration of 1:200 in PBS) was added to each well, to detect any bound biotinylated peptide. The wells were incubated for 20 minutes, protected from light, followed by three further washes. 100 μl of tetramethylbenzidine (TMB)/H2O2, was added to each well. The wells were incubated for 10 minutes, protected from light. The reaction was stopped with 50 μl of 1 M H2SO4. Optical density of each well was read immediately, using a Modulus Microplate Reader set to 450 nm, One-way analysis of variance (ANOVA) was used to deter line statistical significance between groups (GraphPad Prism 5, GraphPad software Ltd).

Where two headings read alike, the source gives them in different places. Square brackets hold non-standard residues; d marks the D form. Peptide text beside a SMILES is read from it. * marks the point of attachment. FITC = O=C1OC2(c3ccc(O)cc3Oc3cc(O)ccc32)c2ccc(NC(=S)*)cc21

With `CC(C)C[C@H](NC(=O)[C@@H](O)[C@H](N)Cc1ccccc1)C(=O)O` [Bestatin, reference compound], the “amount of HABP35-F detectable by UPLC-MS” value in data set [1] (HABP35-F 10 nmole/ml, 6 hours incubation in rabbit vitreous, bestatin 250 μM) was “significantly increased”.

Regarding “SATPASAPYPLAGGGSSATPASAPYPLAGGGS-K(FITC)-amide [RP2-F, reference compound]”, the “peptide concentration in / retention in the donating chamber” value in data set [2] (rabbit vitreous, 20 nmole/ml peptide in donating chamber, 100 kDa MWCO membrane, 2, 4, 6 and 8 hours, fluorescence) is given as “almost reaching equilibrium”. Further, the “concentration gradient (concentration in donating chamber - concentration in receiving chamber)” value in data set [2] (rabbit vitreous, 2, 4, 6 and 8 hours) was “almost reached zero”.

In the case of `CC[C@H](C)[C@H](NC(=O)[C@H](CCCCN)NC(=O)[C@H](CCC(N)=O)NC(=O)[C@H](CCCCN)NC(=O)[C@@H](N)CC(C)C)C(=O)N[C@@H](CCCCN)C(=O)N[C@@H](Cc1c[nH]cn1)C(=O)N[C@H](C(=O)N[C@H](C(=O)N[C@@H](CCCCN)C(=O)N[C@@H](CC(C)C)C(=O)N[C@@H](CCCCN)C(=O)N[C@H](C(=O)N[C@H](C(=O)N[C@H](C(=O)N[C@@H](CCCCN)C(=O)N[C@@H](CC(C)C)C(=O)N[C@@H](CCCNC(=N)N)C(=O)N[C@@H](CO)C(=O)N[C@@H](CCC(N)=O)C(=O)N[C@@H](CC(C)C)C(=O)N[C@H](C(=O)N[C@@H](CCCCN)C(=O)N[C@@H](CCCNC(=N)N)C(=O)N[C@@H](CCCCN)C(=O)N[C@@H](CCC(N)=O)C(=O)N[C@@H](CC(N)=O)C(=O)NCC(=O)NCC(=O)NCC(=O)N[C@@H](CO)C(=O)N[C@@H](CCCCNC(=S)Nc1ccc2c(c1)C(=O)OC21c2ccc(O)cc2Oc2cc(O)ccc21)C(N)=O)C(C)C)C(C)C)C(C)C)C(C)C)C(C)C)C(C)C` [HABP35-F] (H-LKQKIKHVVKLKVVVKLRSQLVKRKQNGGGSK(FITC)-NH2), in data set [3], the “total amount of peptide in both chambers (degradation) during diffusion study” value is “minimal degradation”. Further, in data set [1], the “degradation in rabbit vitreous (mass spectrum)” value is listed as “this new molecule was HABP35-F minus the N-terminal leucine”. Also, the “fluorescence of peptide in the vitreous (epifluorescent microscopy)” value in data set [4] is listed as “visibly more fluorescent peptide”.

Turning to `CC[C@H](C)[C@H](NC(=O)[C@H](CCCCN)NC(=O)[C@H](CCC(N)=O)NC(=O)[C@H](CCCCN)NC(=O)[C@@H](CC(C)C)NC(C)=O)C(=O)N[C@@H](CCCCN)C(=O)N[C@@H](Cc1c[nH]cn1)C(=O)N[C@H](C(=O)N[C@H](C(=O)N[C@@H](CCCCN)C(=O)N[C@@H](CC(C)C)C(=O)N[C@@H](CCCCN)C(=O)N[C@H](C(=O)N[C@H](C(=O)N[C@H](C(=O)N[C@@H](CCCCN)C(=O)N[C@@H](CC(C)C)C(=O)N[C@@H](CCCNC(=N)N)C(=O)N[C@@H](CO)C(=O)N[C@@H](CCC(N)=O)C(=O)N[C@@H](CC(C)C)C(=O)N[C@H](C(=O)N[C@@H](CCCCN)C(=O)N[C@@H](CCCNC(=N)N)C(=O)N[C@@H](CCCCN)C(=O)N[C@@H](CCC(N)=O)C(=O)N[C@@H](CC(N)=O)C(=O)NCC(=O)NCC(=O)NCC(=O)N[C@@H](CO)C(=O)N[C@@H](CCCCNC(=S)Nc1ccc2c(c1)C(=O)OC21c2ccc(O)cc2Oc2cc(O)ccc21)C(N)=O)C(C)C)C(C)C)C(C)C)C(C)C)C(C)C)C(C)C` [HABP35-FP] (Ac-[dL]KQKIKHVVKLKVVVKLRSQLVKRKQNGGGSK(FITC)-NH2), the “fluorescence of peptide in the vitreous (epifluorescent microscopy)” value in data set [4] is reported as “increased retention”.

For “GAHWQFNALTVR-GGGS-K(Biotin)-amide [Pep1-B, reference compound]”, the “specific binding to non-covalently bound HA (A450 HA wells minus blank wells)” value in data set [5] is “significantly greater specific binding at all concentrations tested”.

Consider “LKQKIKHVVKLKVVVKLRSQLVKRKQN-GGGS-K(Biotin)-amide [HABP35-B]”, for which the “degradation in rabbit vitreous (mass spectrum)” value in data set [1] (incubation in rabbit vitreous, 12 hours vs 0 hours) is given as “a new ion also appeared, containing a comparable loss in MW to that seen with HABP35-F”. In data set [5], the “non-specific binding (blocked wells without HA)” value is recorded as “high non-specific binding” and the “specific binding to non-covalently bound HA (A450 HA wells minus blank wells)” value is “specific signal deteriorated at higher concentrations”. Also, in data set [5] (non-covalently bound HA), the “concentrations showing specific binding relative to HABP42-B or Pep1-B” value is listed as “ten-fold less”.
